Experimental data taken from patent publication US6444251B1, “Sweetener compositions containing aspartame and aspartame derivative” (Ajinomoto Co., Inc., priority 1997, dated 2002).
Residues, ends and D or L forms follow the SMILES beside them.

Legend:
[1] = Quality of sweetness (early taste, later taste, astringency) in comparison to sucrose; settings: for early taste / later taste: determined in comparison to sucrose
Procedure: Early taste and late taste are determined in comparison to sucrose. For example, a sweetener, when put in the mouth, can taste sweet as early as sucrose or later than sucrose.

[2] = cited from earlier work; for sweetening potency: relative to sucrose

Row | Compound | early taste [1] | later taste [1] | sweetening potency [2] | astringency (astringent taste) [1] | quality of sweetness ([1]; compared to sucrose / single ingredients) | sweetening potency (in words) ([2]; as shown in French Patent No. 2697844)
1 | COC(=O)[C@H](Cc1ccccc1)NC(=O)[C@@H](N)CC(=O)O [APM, aspartame] (H-Asp-Phe-OMe) | weak in early taste | strong in later taste | about 200 times that of sucrose |  |  | 
2 | COC(=O)[C@H](Cc1ccccc1)NC(=O)[C@H](CC(=O)O)NCCC(C)(C)C [N-(3,3-dimethylbutyl)-APM, N-[N-(3,3-dimethylbutyl)-L-α-aspartyl]-L-phenylalanine methyl ester] | extremely weak | extremely strong | 10,000 times that of sucrose | strong in astringency | badly balanced | markedly improved sweetening potency
